Assay results published in patent publication US20030225044A1, “Method to increase serum levels of vitamins in animals including humans” (priority 2002, published 2003).

Key:
Type in all cases: in vivo, beef steers
[1] = Serum 25-Hydroxy-Vitamin D3 after intranasal or transdermal administration (Example II); conditions: for fold increase in the 25-Hydroxy-Vitamin D3 serum level / percent increase in the 25-Hydroxy-Vitamin D3 serum level: nasal delivery
Method: These five treatments were:
Treatments were applied and cattle were bled via jugular venipuncture at 0, 6, and 24 hours post-dosing.

[2] = Dose/response of nasal administration, serum 25-Hydroxy-Vitamin D3 (Example III); conditions: intranasal
Method: To study the dose/response efficacy of nasal administration of Vitamin D, twelve (12) beef steers of mixed breeding were used to evaluate four treatments (3 replications). These four treatments were:
(§1) Treatments were applied and cattle were bled via jugular venipuncture at 0 and 6 hours post-dosing.

[3] = Buccal versus nasal administration, serum 25-Hydroxy-Vitamin D3 (Example IV); conditions: for serum level change for each milligram administered: after 6 hours (FIG. 7)
Method: To study the dose/response efficacy of buccal administration of one or more vitamins, beef steers of mixed breeding were used to evaluate three treatments (3 replications). These three treatments were:
as §1

[4] = Serum 25-Hydroxy-Vitamin D3 after intravenous infusion (Example I); conditions: 125 mg intravenous infusion
Method: Applicants infused three (3) beef steers of mixed breeding with 125 milligrams of 25-Hydroxy-Vitamin D3 intravenously. Blood was drawn just prior to the intravenous infusion and at 6 hours and 24 hours post administration.
Point 120, representing 116 nanomoles per liter, comprises the serum level of 25-Hydroxy-Vitamin D3 just prior to the intravenous infusion. At 6 hours post administration, the serum blood level was measured as 2432 nanomoles per liter, i.e. point 130. […] At 24 hours post administration, the serum blood level was measured as 1011 nanomoles per liter, i.e. point 140.

[5] = Treatment 2: 125 mg 25-OH D3, ethanol, intranasal, 6 Hours
[6] = Treatment 2: 125 mg 25-OH D3, ethanol, intranasal, 24 Hours
[7] = Treatment 2: 125 mg 25-OH D3, ethanol, intranasal, time 0
[8] = Treatment 2: 125 mg in ethanol, 6 hours post administration (FIG. 2, point 212)
[9] = Treatment 2: 125 mg in ethanol, 24 hours post administration (FIG. 2, point 214)
[10] = Treatment 3: 125 mg 25-OH D3, powder, intranasal, 6 Hours
[11] = Treatment 3: 125 mg 25-OH D3, powder, intranasal, 24 Hours
[12] = Treatment 3: 125 mg 25-OH D3, powder, intranasal, time 0
[13] = Treatment 4: 125 mg 25-OH D3, corn oil, intranasal, 6 Hours
[14] = Treatment 4: 125 mg 25-OH D3, corn oil, intranasal, 24 Hours
[15] = Treatment 4: 125 mg 25-OH D3, corn oil, intranasal, time 0
[16] = Treatment 5: 125 mg 25-OH D3, transdermal (inner ear), 6 Hours
[17] = Treatment 5: 125 mg 25-OH D3, transdermal (inner ear), 24 Hours
[18] = Treatment 5: 125 mg 25-OH D3, transdermal (inner ear), time 0

SMILES: C=C1CC[C@H](O)C/C1=C/C=C1\CCC[C@]2(C)[C@@H]([C@H](C)CCCC(C)(C)O)CC[C@@H]12 [25-Hydroxy-Vitamin D3]
- Average Serum Levels-25-Hydroxy-Vitamin D3 [1, 5]: 226 nmol/L
- Multiple change from time 0 of serum 25-Hydroxy-Vitamin D3 [1, 5]: 3.0
- Average Serum Levels-25-Hydroxy-Vitamin D3 [1, 6]: 354 nmol/L
- Multiple change from time 0 of serum 25-Hydroxy-Vitamin D3 [1, 6]: 4.7
- Average Serum Levels-25-Hydroxy-Vitamin D3 [1, 7]: 75 nmol/L
- Multiple change from time 0 of serum 25-Hydroxy-Vitamin D3 [1, 7]: 0
- course of serum level of 25-Hydroxy-Vitamin D3 ([1]; Treatment 2: 125 mg in ethanol, nasal delivery (FIG. 2, curve 210)): increases throughout the time period from 0 hours to 24 hours post administration
- fold increase in the 25-Hydroxy-Vitamin D3 serum level [1, 8]: more than a three fold increases
- percent increase in the 25-Hydroxy-Vitamin D3 serum level [1, 8]: ~200%
- fold increase in the 25-Hydroxy-Vitamin D3 serum level [1, 9]: greater than 4.7 fold
- percent increase in the 25-Hydroxy-Vitamin D3 serum level [1, 9]: ~375%
- Average Serum Levels-25-Hydroxy-Vitamin D3 [1, 10]: 104 nmol/L
- Multiple change from time 0 of serum 25-Hydroxy-Vitamin D3 [1, 10]: 1.2
- Average Serum Levels-25-Hydroxy-Vitamin D3 [1, 11]: 156 nmol/L
- Multiple change from time 0 of serum 25-Hydroxy-Vitamin D3 [1, 11]: 1.9
- Average Serum Levels-25-Hydroxy-Vitamin D3 [1, 12]: 83 nmol/L
- Multiple change from time 0 of serum 25-Hydroxy-Vitamin D3 [1, 12]: 0
- course of serum level of 25-Hydroxy-Vitamin D3 ([1]; Treatment 3: 125 mg powder, nasal delivery (FIG. 2, curve 220)): increases throughout the time period from 0 hours to 24 hours post administration
- Average Serum Levels-25-Hydroxy-Vitamin D3 [1, 13]: 95 nmol/L
- Multiple change from time 0 of serum 25-Hydroxy-Vitamin D3 [1, 13]: 1.0
- Average Serum Levels-25-Hydroxy-Vitamin D3 [1, 14]: 179 nmol/L
- Multiple change from time 0 of serum 25-Hydroxy-Vitamin D3 [1, 14]: 1.9
- Average Serum Levels-25-Hydroxy-Vitamin D3 [1, 15]: 94 nmol/L
- Multiple change from time 0 of serum 25-Hydroxy-Vitamin D3 [1, 15]: 0
- course of serum level of 25-Hydroxy-Vitamin D3 ([1]; Treatment 4: 125 mg in corn oil, nasal delivery (FIG. 2, curve 230)): increases throughout the time period from 6 hours to 24 hours post administration
- Average Serum Levels-25-Hydroxy-Vitamin D3 [1, 16]: 81 nmol/L
- Multiple change from time 0 of serum 25-Hydroxy-Vitamin D3 [1, 16]: 1.1
- Average Serum Levels-25-Hydroxy-Vitamin D3 [1, 17]: 96 nmol/L
- Multiple change from time 0 of serum 25-Hydroxy-Vitamin D3 [1, 17]: 1.3
- Average Serum Levels-25-Hydroxy-Vitamin D3 [1, 18]: 74 nmol/L
- Multiple change from time 0 of serum 25-Hydroxy-Vitamin D3 [1, 18]: 0
- Average Serum Levels-25-Hydroxy-Vitamin D3 ([2]; Treatment 2: 30 mg 25-OH D3 in 1 ml ethanol, 6 Hours): 149.67 nmoI/L
- Average Serum Levels-25-Hydroxy-Vitamin D3 ([2]; Treatment 2: 30 mg 25-OH D3 in 1 ml ethanol, time 0): 121.33 nmoI/L
- change in serum level per milligram administered, compared among dosages ([2]; Treatment 2: 30 mg in 1 ml ethanol, 6 hours, versus 60, 90, 120 mg (FIG. 5)): maximum change in serum level per milligram administered
- Average Serum Levels-25-Hydroxy-Vitamin D3 ([2]; Treatment 3: 60 mg 25-OH D3 in 1 ml ethanol, 6 Hours): 184.33 nmoI/L
- Average Serum Levels-25-Hydroxy-Vitamin D3 ([2]; Treatment 3: 60 mg 25-OH D3 in 1 ml ethanol, time 0): 144.67 nmoI/L
- Average Serum Levels-25-Hydroxy-Vitamin D3 ([2]; Treatment 4: 90 mg 25-OH D3 in 1 ml ethanol, 6 Hours): 180.67 nmoI/L
- Average Serum Levels-25-Hydroxy-Vitamin D3 ([2]; Treatment 4: 90 mg 25-OH D3 in 1 ml ethanol, time 0): 131.33 nmoI/L
- Average Serum Levels-25-Hydroxy-Vitamin D3 ([2]; Treatment 5: 120 mg 25-OH D3 in 1 ml ethanol, 6 Hours): 191.67 nmoI/L
- Average Serum Levels-25-Hydroxy-Vitamin D3 ([2]; Treatment 5: 120 mg 25-OH D3 in 1 ml ethanol, time 0): 122.33 nmoI/L
- serum level change for each milligram administered ([3]; Buccal administration (Treatment 3, 120 mg in 1 ml ethanol)): about 0.63 nmol/L for each milligram administered
- serum level change for each milligram administered ([3]; Nasal administration (Treatment 2, 120 mg in 1 ml ethanol)): about 0.57 nmol/L for each milligram administered
- Average Serum Levels-25-Hydroxy-Vitamin D3 ([3]; Treatment 2: 120 mg 25-OH D3 in 1 ml ethanol, intranasal, 6 Hours): 191.67 nmol/L
- Average Serum Levels-25-Hydroxy-Vitamin D3 ([3]; Treatment 2: 120 mg 25-OH D3 in 1 ml ethanol, intranasal, time 0): 122.33 nmol/L
- effectiveness of buccal administration compared with nasal administration ([3]; Treatment 3, buccal, in ethanol, versus Treatment 2, nasal, 0 to 6 hours (FIG. 6, curves 610 and 620)): comparatively as effective as nasal administration
- Average Serum Levels-25-Hydroxy-Vitamin D3 ([3]; Treatment 3: 120 mg 25-OH D3 in 1 ml ethanol, buccal, 6 Hours): 158.00 nmol/L
- Average Serum Levels-25-Hydroxy-Vitamin D3 ([3]; Treatment 3: 120 mg 25-OH D3 in 1 ml ethanol, buccal, time 0): 82.00 nmol/L
- course of serum level of 25-Hydroxy-Vitamin D3 ([4]; 0 to 6 hours (FIG. 1, curve portion 112)): increases from 0 hours to 6 hours post administration
- course of serum level of 25-Hydroxy-Vitamin D3 ([4]; 6 to 24 hours (FIG. 1, curve portion 114)): decreases from 6 hours to 24 hours post administration
- serum level of 25-Hydroxy-Vitamin D3 ([4]; 6 hours post administration): 2432 nanomoles per liter
- serum level of 25-Hydroxy-Vitamin D3 ([4]; 24 hours post administration): 1011 nanomoles per liter
- serum level of 25-Hydroxy-Vitamin D3 ([4]; just prior to infusion): 116 nanomoles per liter
